The record followed here is EP2077105A1, “Ophthalmic Micellar Compositions with Enhanced Stability” (Novagali Pharma S.A., priority 2008, dated 2009).

The series can be described thus: Zeta potential of emulsion surface. Format: physicochemical. Particulars: 0.02% BAK and 0.002% CKC in emulsion. An excerpt:
All the eye drops were supplied by Novagali Pharma (Evry, France) and were sterile with physiological pH and osmolality. The present Applicants chose to compare 0.02% BAK to 0.002% CKC since these two QAC concentrations confer equivalent positive charge to the emulsion surface (zeta potential around 20 mV).

Consider `CCCCCCCCCCCCCCCC[N+](C)(C)Cc1ccccc1` [Cetalkonium chloride, cetalkonium chloride], for which the zeta potential result was “around 20 mV”.
